Test system: TNF-α production by human monocytes (THP-1)
Assay: TNF-α production by THP-1 cells (ELISA)
Format: cell-based
Conditions: 24 hours, FIG. 8
Protocol: The biocompatibility of the nanoparticles was assessed by measuring toxicity and inflammation in THP-1 cells. Cells were seeded at a density of 250,000 cells/ml in 96-well plates (Corning) and treated with 10 ng/ml phorbol 12-myristate 13-acetate (PMA, Sigma-Aldrich) for 48 hours to induce differentiation, which was confirmed by the monocytes becoming adherent. Following a change of media, cells were treated with various concentrations of core+shell nanoparticles. Control samples received PBS (negative control) or 50 ng/ml lipopolysaccharide (LPS, Sigma-Aldrich) (positive control). After 24 hours, the media was collected for cytokine analysis and an MTT-based assay was performed to determine cell toxicity using the Aqueous One Proliferation Kit (Promega) according to manufacturer's instructions. […] After two hours of incubation in the cell culture incubator, the absorbance was read at 490 nm with a correction at 650 nm.
The ability of the particles to cause an inflammatory response was determined by running conditioned cell media on a TNF-α ELISA (PeproTech) according to manufacturer instructions. […] Following incubation with a detection antibody and an avidin-horse radish peroxidase conjugate, the samples were developed with the addition of 2,2′-azino-bis(3-ethylbenzthiazoline-6-sulphonic acid) (ABTS) liquid substrate (Sigma-Aldrich) and monitored at 405 nm with a correction at 650 nm.

Question: lipopolysaccharide was tested. Which TNF-α production did it give?
Answer: The TNF-α production was “did induce TNF-α production”.

From patent publication US20160166654A1, “COLLAGEN-TARGETED NANOPARTICLES” (PURDUE RESEARCH FOUNDATION, priority 2011, published 2016)
